1 compound from patent US12133920B2, “Stabilization of beta-hydroxyisovaleric acid formulations in soft gel capsules” (TSI Group Ltd., priority 2016, dated 2024) can be followed below.

This series is described as follows: Accelerated stability test: HMB-FA contents per capsule. The class given is physicochemical. The note with it: for HMB FA contents: 40±2° C., 75% RH±5% RH, sealed HDPE bottles, HMB-FA 75 wt %, betaine anhydrous 18 wt %, purified water 7 wt %. As for the experimental part: Accelerated Stability Test: To assess how the quality and purity of the instantly disclosed composition would vary with time under the influence of environmental factors of temperature and humidity, accelerated stability tests were performed. Tests were carried out according to guidelines provided in Stability Testing of New Drug Substances and Products issued by ICH and Stability testing guideline of dietary supplements by NSF. NSF Stability Testing Working Group, Stability testing guideline of dietary supplements, January 2011. […] The gel capsule composition was HMB-FA 75 wt %; betaine anhydrous 18 wt % and purified water 7 wt %. Samples were repacked in HDPE bottles (size: 1 80 ct, 300 rnl) then sealed with aluminum foil. Samples were exposed to high temperature and high humidity (40±2° C.; 75% RH±5% RH) and evaluated at 1, 2, and 3 months.

In the case of `CC(C)(O)CC(=O)O` [HMB FA, Beta-hydroxyisovaleric acid], the “HMB FA contents” value by setting is: (0 months) 519 mg/capsule; (1 month) 494.4 mg/capsule; (2 months) 484.8 mg/capsule; (3 months) 491.8 mg/capsule. Under “high heat high humidity environments, periods exceeding three months”, the “stability of HMB FA (overall)” value is recorded as “substantially stable”.
